Test system: Human platelet aggregation induced by ADP (platelet rich plasma)
Assay: Inhibition of human platelet aggregation induced by ADP
Type: cell-based
Details: human PRP; aggregation induced by ADP at final concentration of 2.5 μM; 37° C.
Method: Inhibition of Human Platelet Aggregation Induced by ADP
Human blood was obtained from healthy volunteers and mixed with 1/10 volume of 3.8% sodium citrate, pH 7.4. The citrate blood was centrifuged at 150×g for 10 minutes and the platelet rich plasma (PRP) was removed. The remaining blood was centrifuged for a further 10 minutes at 1500×g to prepare the platelet poor plasma (PPP), which was used as a reference for platelet aggregation. Aggregation studies were carried out using HEMATRACER 801 (NBS, Japan), a 8 channel aggregometer. The test compound solution (25 μl) and the PRP (225 μl) were mixed and stirred at 1000 rpm at 37° C. for 2 minutes. Aggregation was induced by ADP solution at the final concentration of 2.5 μM.

IC50: < 0.1 µM
SMILES: CCOC(=O)COc1cccc(CN2C[C@H](O)C[C@@H]2c2nc(-c3ccccc3)c(-c3ccccc3)o2)c1 [(1)]
